pIC50: −log10 of the molar value. Values joined by “and” are separate entries in the source; they are usually repeats but may differ in a detail not shown here. Identical values can stand only once. Like-named read-outs stand apart in the source and are kept apart here.
Columns and labels:
[1] = system: NQO1 enzymatic activity in RAW264.7 mouse macrophage cells; experiment: NQO1 enzymatic activity (modified Prochaska assay) in RAW264.7; type: cell-based; conditions: RAW264.7, 24 h
Experimental: Consistent with induction of Nrf2 target genes and corresponding protein products, treatment of RAW264.7 mouse macrophage cells for 24 h increased NQO1 enzymatic activity in a dose-dependent manner, with increases evident at 7.8 nM (FIG. 7). NQO1 enzymatic activity was measured by a modified Prochaska assay (Prochaska and Santamaria, Anal Biochem. 169:328-336, 1988, which is incorporated herein by reference).

[2] = Metabolism in rodent (mouse, rat) liver microsomes; type: in vitro ADME, mice, rats; conditions: 60-min incubation, NADPH and UGT
[3] = system: lactate in C2Cl2 muscle cells; experiment: Lactate levels in C2Cl2 myotubes; type: cell-based, rodent; conditions: differentiated C2Cl2 myotubes; 1 μM or 2 μM, 3 h
Experimental: Buffer was removed and saved for measurement of extracellular lactate levels. Cell debris was pelleted by centrifugation (10 min at 14,000 rpm) prior to measurement of lactate. To measure intracellular lactate, cells were suspended in 0.1% Triton X-100 in PBS and lysed by shearing with a 25 gauge needle. Cell lysate was centrifuged (10 min at 14,000 rpm, 4° C.) and lactate was measured in the supernatant. Intracellular and extracellular lactate was measured using the Lactate Assay Kit (BioVision, Catalog # K607-100).

[4] = system: pulmonary function; experiment: Pulmonary evaluation in rats; type: in vivo, rat; conditions: single oral dose up to and including 30 mg/kg
Experimental: One additional group of 8 animals/sex served as the control and received vehicle (sesame oil).
Observations for mortality, morbidity, injury, and availability of food and water were conducted twice daily for all animals. Clinical observations were conducted prior to dosing, approximately 4 h post-dose, and following completion of the 8-h pulmonary monitoring period. […] Pulmonary function (respiratory rate, tidal volume, and minute volume) was monitored for at least 1 h prior to dosing to establish a baseline and for at least 8 h post-dose.

[5] = system: NF-κB in NIH3T3/NF-κB-luc cell line; experiment: NF-κB luciferase reporter in NIH3T3/NF-κB-luc; type: cell-based; conditions: Mus musculus
Text: (b) TNF-α-induced activation of an NF-κB luciferase reporter in the mouse NIH3T3 cell line.
NF-κB is a transcription factor that plays a central role in the regulation of many immune and inflammatory responses. […] The NIH3T3/NF-κB-luc cell line maintains a chromosomal integration of a Firefly luciferase reporter construct regulated by eight copies of the NF-κB response element. The effects of these compounds can be quantified by measuring the value of the NF-κB IC50.

[6] = molecular target: CYP1A2 (Homo sapiens, UniProt P05177); experiment: in vitro; type: in vitro ADME; conditions: microsomes
Text: In addition, there was little or no evidence of metabolism-dependent inhibition of any of the enzymes tested.

[7] = Distribution into mouse tissues after PO QD×3; type: in vivo; conditions: mice PO QD×3 25 mg/kg, 6 h after last dose, semi-quantitative
Experimental: Semi-quantitative analysis of drug content was performed.

[8] = system: acute radiation dermatitis; experiment: Acute radiation dermatitis in BALB/c mice; type: in vivo, mouse
[9] = system: LPS-induced sepsis; conditions: mouse, in vivo
[10] = Topical pharmacokinetics in rats; type: in vivo, rat; conditions: 0.01% to 3% suspension in sesame oil
Text: The topical administration was formulated as a suspension in sesame oil.

[11] = Metabolism in human liver microsomes; type: in vitro ADME; conditions: 60-min incubation, NADPH and UGT

Sequence of CYP1A2 (P05177 whole entry): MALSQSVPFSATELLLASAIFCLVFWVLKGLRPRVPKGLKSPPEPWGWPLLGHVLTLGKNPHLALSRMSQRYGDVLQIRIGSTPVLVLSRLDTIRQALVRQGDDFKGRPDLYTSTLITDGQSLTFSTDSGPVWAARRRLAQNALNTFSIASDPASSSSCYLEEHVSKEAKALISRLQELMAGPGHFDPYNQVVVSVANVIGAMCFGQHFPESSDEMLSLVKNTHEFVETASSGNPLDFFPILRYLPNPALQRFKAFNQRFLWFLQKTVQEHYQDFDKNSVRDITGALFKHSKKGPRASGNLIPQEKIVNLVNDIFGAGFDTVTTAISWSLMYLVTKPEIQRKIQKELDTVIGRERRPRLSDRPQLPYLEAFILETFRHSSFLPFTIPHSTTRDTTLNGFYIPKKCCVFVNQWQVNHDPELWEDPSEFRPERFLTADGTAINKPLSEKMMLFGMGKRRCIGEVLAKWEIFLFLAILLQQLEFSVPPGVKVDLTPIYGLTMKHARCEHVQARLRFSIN

CC1(C)CC[C@]2(NC(=O)C(C)(F)F)CC[C@]3(C)[C@H](C(=O)C=C4[C@@]5(C)C=C(C#N)C(=O)C(C)(C)[C@@H]5CC[C@]43C)[C@@H]2C1 [RTA 408, N-((4aS,6aR,6bS,8aR,12aS,14aR,14bS)-11-cyano-2,2,6a,6b,9,9,12a-heptamethyl-10,14-dioxo-1,2,3,4,4a,5,6,6a,6b,7,8,8a,9,10,12a,14,14a,14b-octadecahydropicen-4a-yl)-2,2-difluoropropanamide]
Concentration at which increases in NQO1 enzymatic activity were evident [1]: 7.8 nM
Parent molecule remaining [2]: > 65%
Intracellular and extracellular lactate levels [3]: significantly increased intracellular and extracellular lactate levels in a dose-dependent manner
Pulmonary endpoints (respiratory rate, tidal volume, minute volume) [4]: did not produce any adverse effects
pIC50 ([5]; not viability normalized, read-out: NIH3T3/NF-κB IC50): 5.92
pIC50 ([5]; viability normalized, read-out: NIH3T3/NF-κB IC50, normalized for viability): 5.85
inhibition at 3 µM [6]: < 50%
concentration at 6 h ([7]; brain, read-out: Drug content, Brain): 1080 nM
concentration at 6 h ([7]; kidney, read-out: Drug content, Kidney): 1600 nM
concentration at 6 h ([7]; liver, read-out: Drug content, Liver): 985 nM
concentration at 6 h ([7]; lung, read-out: Drug content, Lung): 533 nM
concentration at 6 h ([7]; plasma, read-out: Drug content, Plasma): 51 nM
concentration at 6 h ([7]; whole blood, read-out: Drug content, Whole Blood): 679 nM
% animal-days >=2 ([8]; oral 3 mg/kg): 32.5%
% animal-days >=3 ([8]; oral 3 mg/kg): 1.3%
% mice scored above 3 in clinical dermatitis exam, Day 16 ([8]; oral 3 mg/kg): 10%
% mice scored above 3 in clinical dermatitis exam, Day 18 ([8]; oral 3 mg/kg): 10%
% mice scored above 3 in clinical dermatitis exam, Day 20 ([8]; oral 3 mg/kg): 0%
% mice scored above 3 in clinical dermatitis exam, Day 22 ([8]; oral 3 mg/kg): 0%
% mice scored above 3 in clinical dermatitis exam, Day 24 ([8]; oral 3 mg/kg): 0%
% mice scored above 3 in clinical dermatitis exam, Day 26 ([8]; oral 3 mg/kg): 0%
% mice scored above 3 in clinical dermatitis exam, Day 28 ([8]; oral 3 mg/kg): 0%
% animal-days >=2 ([8]; oral 10 mg/kg): 33.8%
% animal-days >=3 ([8]; oral 10 mg/kg): 4.1%
% mice scored above 3 in clinical dermatitis exam, Day 16 ([8]; oral 10 mg/kg): 10%
% mice scored above 3 in clinical dermatitis exam, Day 18 ([8]; oral 10 mg/kg): 25%
% mice scored above 3 in clinical dermatitis exam, Day 20 ([8]; oral 10 mg/kg): 30%
% mice scored above 3 in clinical dermatitis exam, Day 22 ([8]; oral 10 mg/kg): 0%
% mice scored above 3 in clinical dermatitis exam, Day 24 ([8]; oral 10 mg/kg): 0%
% mice scored above 3 in clinical dermatitis exam, Day 26 ([8]; oral 10 mg/kg): 0%
% mice scored above 3 in clinical dermatitis exam, Day 28 ([8]; oral 10 mg/kg): 0%
% animal-days >=2 ([8]; oral 30 mg/kg): 28.8%
% animal-days >=3 ([8]; oral 30 mg/kg): 2.5%
% mice scored above 3 in clinical dermatitis exam, Day 16 ([8]; oral 30 mg/kg): 10%
% mice scored above 3 in clinical dermatitis exam, Day 18 ([8]; oral 30 mg/kg): 20%
% mice scored above 3 in clinical dermatitis exam, Day 20 ([8]; oral 30 mg/kg): 10%
% mice scored above 3 in clinical dermatitis exam, Day 22 ([8]; oral 30 mg/kg): 0%
% mice scored above 3 in clinical dermatitis exam, Day 24 ([8]; oral 30 mg/kg): 0%
% mice scored above 3 in clinical dermatitis exam, Day 26 ([8]; oral 30 mg/kg): 0%
% mice scored above 3 in clinical dermatitis exam, Day 28 ([8]; oral 30 mg/kg): 0%
% animal-days >=2 ([8]; topical 0.01% in sesame oil): 14.4%
% animal-days >=3 ([8]; topical 0.01% in sesame oil): 0.0%
% mice scored above 2 in clinical dermatitis exam, Day 12 ([8]; topical 0.01% in sesame oil): 0.0%
% mice scored above 2 in clinical dermatitis exam, Day 14 ([8]; topical 0.01% in sesame oil): 0.0%
% mice scored above 2 in clinical dermatitis exam, Day 16 ([8]; topical 0.01% in sesame oil): 20.0%
% mice scored above 2 in clinical dermatitis exam, Day 18 ([8]; topical 0.01% in sesame oil): 50.0%
% mice scored above 2 in clinical dermatitis exam, Day 20 ([8]; topical 0.01% in sesame oil): 10.0%
% mice scored above 2 in clinical dermatitis exam, Day 22 ([8]; topical 0.01% in sesame oil): 40.0%
% mice scored above 2 in clinical dermatitis exam, Day 24 ([8]; topical 0.01% in sesame oil): 40.0%
% mice scored above 2 in clinical dermatitis exam, Day 26 ([8]; topical 0.01% in sesame oil): 40.0%
% mice scored above 2 in clinical dermatitis exam, Day 28 ([8]; topical 0.01% in sesame oil): 20.0%
% mice scored above 2 in clinical dermatitis exam, Day 30 ([8]; topical 0.01% in sesame oil): 10.0%
% animal-days >=2 ([8]; topical 0.1% in sesame oil): 16.3%
% animal-days >=3 ([8]; topical 0.1% in sesame oil): 0.0%
% mice scored above 2 in clinical dermatitis exam, Day 12 ([8]; topical 0.1% in sesame oil): 7.1%
% mice scored above 2 in clinical dermatitis exam, Day 14 ([8]; topical 0.1% in sesame oil): 10.0%
% mice scored above 2 in clinical dermatitis exam, Day 16 ([8]; topical 0.1% in sesame oil): 20.0%
% mice scored above 2 in clinical dermatitis exam, Day 18 ([8]; topical 0.1% in sesame oil): 80.0%
% mice scored above 2 in clinical dermatitis exam, Day 20 ([8]; topical 0.1% in sesame oil): 60.0%
% mice scored above 2 in clinical dermatitis exam, Day 22 ([8]; topical 0.1% in sesame oil): 40.0%
% mice scored above 2 in clinical dermatitis exam, Day 24 ([8]; topical 0.1% in sesame oil): 30.0%
% mice scored above 2 in clinical dermatitis exam, Day 26 ([8]; topical 0.1% in sesame oil): 10.0%
% mice scored above 2 in clinical dermatitis exam, Day 28 ([8]; topical 0.1% in sesame oil): 0.0%
% mice scored above 2 in clinical dermatitis exam, Day 30 ([8]; topical 0.1% in sesame oil): 0.0%
% animal-days >=2 ([8]; topical 1.0% in sesame oil): 9.7%
% animal-days >=3 ([8]; topical 1.0% in sesame oil): 0.0%
% mice scored above 2 in clinical dermatitis exam, Day 12 ([8]; topical 1.0% in sesame oil): 10.7%
% mice scored above 2 in clinical dermatitis exam, Day 14 ([8]; topical 1.0% in sesame oil): 20.0%
% mice scored above 2 in clinical dermatitis exam, Day 16 ([8]; topical 1.0% in sesame oil): 10.0%
% mice scored above 2 in clinical dermatitis exam, Day 18 ([8]; topical 1.0% in sesame oil): 70.0%
% mice scored above 2 in clinical dermatitis exam, Day 20 ([8]; topical 1.0% in sesame oil): 30.0%
% mice scored above 2 in clinical dermatitis exam, Day 22 ([8]; topical 1.0% in sesame oil): 10.0%
% mice scored above 2 in clinical dermatitis exam, Day 24 ([8]; topical 1.0% in sesame oil): 0.0%
% mice scored above 2 in clinical dermatitis exam, Day 26 ([8]; topical 1.0% in sesame oil): 0.0%
% mice scored above 2 in clinical dermatitis exam, Day 28 ([8]; topical 1.0% in sesame oil): 0.0%
% mice scored above 2 in clinical dermatitis exam, Day 30 ([8]; topical 1.0% in sesame oil): 0.0%
Animals surviving until Day 4 [9]: 80% and 90%
Survival, systemic LPS [9]: improved survival
Plasma concentrations after topical administration [10]: lower plasma concentrations relative to similar oral dosing
Parent molecule remaining [11]: < 10%

— patent US9701709B2 (REATA PHARMACEUTICALS, INC., priority 2012, dated 2017)
